“And” between values parts separate entries of the source, which are not always exact repeats. Identical values can stand only once. Inconclusive results and toxic doses are left out.

This test has as its system P388 leukemia ip, CD2F1 mice, survival T/C. Briefly: NCI In Vivo Anticancer Drug Screen. Data for tumor model P388 Leukemia (intraperitoneal) in CD2F1 (CDF1) mice. Particulars: endpoint: median survival time, higher = longer survival. The method in brief:
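Mice carrying the transplanted tumor received test compound or vehicle. Survival was recorded in each group, and the value is the treated-group measurement divided by that of the vehicle-treated control group.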

Where [1] appears, read: dose: 50.0 mg/kg/injection, schedule: Q01DX005 (ip), vehicle: Klucel (hydroxypropylcellulose) (HPC).
Setting [2] is: dose: 100.0 mg/kg/injection, schedule: Q01DX005 (ip), vehicle: Klucel (hydroxypropylcellulose) (HPC).
[3] abbreviates: dose: 200.0 mg/kg/injection, schedule: Q01DX005 (ip), vehicle: Klucel (hydroxypropylcellulose) (HPC).
The mark [4] stands for this setting: dose: 50.0 mg/kg/injection, schedule: Q01DX009 (ip), vehicle: saline with Tween-80.
[5] abbreviates: dose: 100.0 mg/kg/injection, schedule: Q01DX009 (ip), vehicle: saline with Tween-80.
Where [6] appears, read: dose: 200.0 mg/kg/injection, schedule: Q01DX009 (ip), vehicle: saline with Tween-80.
The mark [7] stands for this setting: dose: 25.0 mg/kg/injection, schedule: Q01DX005 (ip), vehicle: saline with Tween-80.
The mark [8] stands for this setting: dose: 50.0 mg/kg/injection, schedule: Q01DX005 (ip), vehicle: saline with Tween-80.
[9] abbreviates: dose: 100.0 mg/kg/injection, schedule: Q01DX005 (ip), vehicle: saline with Tween-80.
The mark [10] stands for this setting: dose: 200.0 mg/kg/injection, schedule: Q01DX005 (ip), vehicle: saline with Tween-80.
Setting [11] is: dose: 1.25 mg/kg/injection, schedule: Q01DX009 (ip), vehicle: Klucel (hydroxypropylcellulose) (HPC).
The mark [12] stands for this setting: dose: 2.5 mg/kg/injection, schedule: Q01DX009 (ip), vehicle: Klucel (hydroxypropylcellulose) (HPC).
[13] abbreviates: dose: 5.0 mg/kg/injection, schedule: Q01DX009 (ip), vehicle: Klucel (hydroxypropylcellulose) (HPC).
Setting [14] is: dose: 60.0 mg/kg/injection, schedule: Q01DX005 (ip), vehicle: saline with Tween-80.
Where [15] appears, read: dose: 120.0 mg/kg/injection, schedule: Q01DX005 (ip), vehicle: saline with Tween-80.
[16] abbreviates: dose: 240.0 mg/kg/injection, schedule: Q01DX005 (ip), vehicle: saline with Tween-80.

As to `Cc1ccc(S(=O)(=O)C(C#N)(Cc2c[nH]c3ccccc23)Cc2c[nH]c3ccccc23)cc1`, the T/C by setting is: under setting [1], 107 % of control; under setting [2], 101 % of control; under setting [3], 98 % of control.
Take `CC(/C=C/C1OC(=O)C=CC1C)=C\C(C)C/C=C/C(C)=C/C(C)C(=O)C(C)C(O)C(C)C/C(C)=C/C(=O)O` (stereo not given): the T/C runs as follows: (dose: 2.5 micrograms/kg/injection, schedule: Q01DX005 (ip), vehicle: saline + alcohol) 101 % of control; (dose: 5.0 micrograms/kg/injection, schedule: Q01DX005 (ip), vehicle: saline + alcohol) 99 % of control; (dose: 10.0 micrograms/kg/injection, schedule: Q01DX005 (ip), vehicle: saline + alcohol) 106 % of control; (dose: 20.0 micrograms/kg/injection, schedule: Q01DX005 (ip), vehicle: saline + alcohol) 100 % of control; (dose: 100.0 micrograms/kg/injection, schedule: Q01DX005 (ip), vehicle: alcohol) 150 % of control; (dose: 200.0 micrograms/kg/injection, schedule: Q01DX005 (ip), vehicle: alcohol) 159 % of control.
As for `Nc1nc2nc[nH]c2c(=O)[nH]1`, the T/C is, setting by setting: (dose: 25.0 mg/kg/injection, schedule: Q01DX009 (ip), vehicle: saline with Tween-80) 97 % of control; under setting [4], 98 % of control; under setting [5], 90 % of control; (dose: 100.0 mg/kg/injection, schedule: Q01DX009 (ip), vehicle: suspension in saline) 97 % of control; under setting [6], 90 % of control; (dose: 200.0 mg/kg/injection, schedule: Q01DX009 (ip), vehicle: suspension in saline) 92 % of control. Moreover, the T/C (dose: 400.0 mg/kg/injection, schedule: Q01DX009 (ip), vehicle: suspension in saline) is 87 % of control.
On to `CC(C)CC(C)(c1ccc(O)cc1)c1ccc(O)cc1`, for which the T/C under setting [5] is 105 % of control and the T/C under setting [6] is 105 % of control.
As for `CCC1=C(C)CC(CC(=O)OC)C1=O` (stereo not given), the T/C is 95 % of control (dose: 50.0 mg/kg/injection, schedule: Q01DX005 (ip), vehicle: saline); 97 % of control (dose: 100.0 mg/kg/injection, schedule: Q01DX005 (ip), vehicle: saline); 98 % of control (dose: 200.0 mg/kg/injection, schedule: Q01DX005 (ip), vehicle: saline).
With `COc1nc2cc3c(cc2n2cccc12)oc1ccccc13`, the T/C reads like this: under setting [7], 95 % of control; under setting [8], 96 % of control; under setting [9], 102 % of control.
For `CCOC1CC(=O)C2(C)C3CCC4(C)C(C(C)C5CC(C)=C(CO)C(=O)O5)CCC4C3CC3OC32C1O` (stereo not given), the T/C reads like this: (dose: 12.67 mg/kg/injection, schedule: Q01DX009 (ip), vehicle: saline + alcohol) 101 % of control; (dose: 25.35 mg/kg/injection, schedule: Q01DX009 (ip), vehicle: saline + alcohol) 104 % of control; (dose: 50.7 mg/kg/injection, schedule: Q01DX009 (ip), vehicle: saline + alcohol) 92 % of control.
Turning to `Cc1ccn2c(C(C)O)nnc2c1` (stereo not given), the T/C runs as follows: under setting [4], 93 % of control; under setting [5], 90 % of control; under setting [6], 100 % of control.
`CCOC(=O)CC1(O)CSC(=C(C#N)C#N)S1` (stereo not given): the T/C runs as follows: under setting [8], 100 % of control; under setting [9], 100 % of control; under setting [10], 92 % of control.
In the case of `COC(=O)C(C)NC(=O)C(CCSC)NC(=O)OC(C)(C)C` (stereo not given), the T/C is, setting by setting: (dose: 25.0 mg/kg/injection, schedule: Q01DX005 (ip), vehicle: Klucel (hydroxypropylcellulose) (HPC)) 98 % of control; under setting [1], 100 % of control and 102 % of control; under setting [2], 95 % of control; under setting [3], 104 % of control.
On to `C[C@H]1C/C=C/[C@H]2[C@@H]3O[C@]3(C)[C@@H](C)[C@H]3[C@H](Cc4ccccc4)NC(=O)[C@]32OC(=O)O/C=C/[C@@](C)(O)C1=O`, for which the T/C was 99 % of control under setting [11]; 94 % of control under setting [12]; 97 % of control under setting [13]; 88 % of control (dose: 10.0 mg/kg/injection, schedule: Q01DX009 (ip), vehicle: Klucel (hydroxypropylcellulose) (HPC)).
Turning to `CCC(c1ccc(O)cc1)C(CC)c1ccc(OCC(N)=O)cc1` (stereo not given), the T/C is 92 % of control under setting [14], 94 % of control under setting [15] and 94 % of control under setting [16].
Consider `O=C(NCCCCCCCCCNC(=O)C12CC3CC(CC(C3)C1)C2)C12CC3CC(CC(C3)C1)C2`, for which the T/C is 93 % of control (dose: 12.5 mg/kg/injection, schedule: Q01DX005 (ip), vehicle: saline with Tween-80); 93 % of control under setting [7]; 88 % of control under setting [8]; 90 % of control under setting [10].
Regarding `CN(C)/C(=N\N=C(/c1ccc(Cl)cc1)N(C)C)c1ccc(Cl)cc1`, the T/C was 97 % of control (dose: 100.0 mg/kg/injection, schedule: Q04DX003 (ip), vehicle: saline with Tween-80); 105 % of control (dose: 200.0 mg/kg/injection, schedule: Q04DX003 (ip), vehicle: saline with Tween-80); 105 % of control (dose: 400.0 mg/kg/injection, schedule: Q04DX003 (ip), vehicle: saline with Tween-80).
In the case of `O=C(CCN1CCCCC1)Nc1ccc(F)cc1F`, the T/C by setting is: under setting [8], 97 % of control; under setting [9], 99 % of control; under setting [10], 100 % of control.
As for `NS(=O)(=O)c1ccc(Nc2c3ccccc3nc3ncccc23)cc1`, the T/C was 92 % of control (dose: 7.5 mg/kg/injection, schedule: Q01DX005 (ip), vehicle: saline with Tween-80); 91 % of control (dose: 15.0 mg/kg/injection, schedule: Q01DX005 (ip), vehicle: saline with Tween-80); 92 % of control (dose: 30.0 mg/kg/injection, schedule: Q01DX005 (ip), vehicle: saline with Tween-80).
`C=C1C(C)C2C(Cc3ccccc3)NC(=O)C23C(OC(C)=O)C=CC(C)(O)C(=O)C(C)C/C=C/C3C1O` (stereo not given): the T/C reads like this: (dose: 0.62 mg/kg/injection, schedule: Q01DX009 (ip), vehicle: Klucel (hydroxypropylcellulose) (HPC)) 107 % of control; (dose: 0.63 mg/kg/injection, schedule: Q01DX009 (ip), vehicle: Klucel (hydroxypropylcellulose) (HPC)) 107 % of control; under setting [11], 107 % of control and 97 % of control; under setting [12], 107 % of control and 120 % of control; under setting [13], 100 % of control and 103 % of control.
On to `CC1=C(c2ccco2)C(c2ccco2)OC1=O` (stereo not given), for which the T/C was 102 % of control under setting [14], 103 % of control under setting [15] and 103 % of control under setting [16].
`CC1(C)OC(COCCO)C(COCCO)O1` (stereo not given): the T/C is 92 % of control (dose: 100.0 mg/kg/injection, schedule: Q01DX001 (ip), vehicle: saline); 91 % of control (dose: 200.0 mg/kg/injection, schedule: Q01DX001 (ip), vehicle: saline); 92 % of control (dose: 400.0 mg/kg/injection, schedule: Q01DX001 (ip), vehicle: saline).
Turning to `O=C(CCc1c[nH]c2ccccc12)c1ccccc1O`, the T/C runs as follows: under setting [14], 98 % of control; under setting [15], 100 % of control; under setting [16], 92 % of control.
`CC(=O)O[C@H]1[C@@H](C(C)C)CC[C@@]2(C)[C@H](Br)CC[C@@](C)(O)[C@H]12`: the T/C (dose: 20.0 mg/kg/injection, schedule: Q01DX005 (ip), vehicle: other) is 105 % of control; the T/C (dose: 40.0 mg/kg/injection, schedule: Q01DX005 (ip), vehicle: other) was 105 % of control; the T/C (dose: 80.0 mg/kg/injection, schedule: Q01DX005 (ip), vehicle: other) was 105 % of control.
`CC1CCC2(OC1)OC1CC3C4CC=C5CC(OC6OC(CO)C(OC7OC(C)C(OC8OC(C)C(O)C(O)C8O)C(O)C7O)C(O)C6OC6OC(C)C(O)C(O)C6O)CCC5(C)C4CCC3(C)C1C2C` (stereo not given): the T/C (dose: 0.62 mg/kg/injection, schedule: Q01DX009 (ip), vehicle: saline) is 106 % of control; the T/C (dose: 1.25 mg/kg/injection, schedule: Q01DX009 (ip), vehicle: saline) was 91 % of control; the T/C (dose: 2.5 mg/kg/injection, schedule: Q01DX009 (ip), vehicle: saline) was 90 % of control.
As to `O=C1CS/C(=C/Cc2nc3ccccc3s2)N1`, the T/C was 108 % of control under setting [14], 97 % of control under setting [15] and 102 % of control under setting [16].

(Values after PubChem BioAssay AID330 (DTP/NCI, 2004).)
